From patent US20250136592A1, “C-LINKED INHIBITORS OF ENL/AF9 YEATS” (Bridge Medicines, priority 2021, published 2025)
pEC50, pIC50: −log10 of the molar value. Like-named read-outs stand apart in the source and are kept apart here.

Assays:
ENL YEATS domain = ENL YEATS domain (Homo sapiens (Human), UniProt Q03111); assay: TR-FRET ENL Screening Assay; settings: 6xHIS ENL YEATS domain binding to H3K9cr peptide
Procedure: Compounds of the invention were tested in a TR-FRET ENL Screening Assay. TR-FRET (time-resolved fluorescence energy transfer) can be used to quantify ENL YEATS domain binding to a crotonylated histone peptide (H3K9cr, aa1-20). Streptavidin-Europium (Eu) chelate binds the biotinylated peptide, while Anti-6×HIS ULight™ binds 6×HIS-ENL. When Eu chelate is excited at 320 nm, fluorescence resonance energy transfer (FRET) occurs if Eu and ULight are made proximal by ENL binding to the acyl-peptide.
Low control (LC) wells received 5 μL of assay buffer instead of ENL protein. […] The response at each compound concentration minus the LC value was converted to percent inhibition of the vehicle control group response (HC-LC).

[1] = tested on: MV4:11 (MLL-AF4 MLL) cells; assay: Cell viability assay (CellTiter-Glo), 12 days; assay type: cell-based; settings: MV4;11 cells, 12 day, read-out: CTG_MV4, 11 12 DAY_EC50
Procedure: The assays were conducted over 12 days and the cells being split on days 4 and 8. […] Blank wells received cell culture medium. Plates were incubated for 4 days at 37° C. with 5% CO2. On days 4 and day 8 the cells were split and incubated for a further 4 days whilst an aliquot of cells were taken for the CTG readout. For the cell splitting, 270 nL of compounds or DMSO was added to a new 96 well cell culture plate to which 90 μL of medium plus 10 μL of cells from the original assay plate (after mixing) or 100 μL of medium (Blank wells) was added. This was repeated on day 8.
Cell viability was assessed using the CellTiter-Glo® homogeneous luminescent assay kit (Promega, G9243), according to the manufacturer's instructions. This quantifies ATP, which indicates the presence of metabolically active cells. […] The resulting data were analyzed as follows:
where vehicle are cells treated with 0.3% DMSO, Blank is culture medium. IC50 determinations were calculated by fitting the curve using XLfit (v5.3.1.3): Y=Bottom+(Top−Bottom)/(1+10^((LogIC50−X)*HillSlope)).

Chain of ENL YEATS domain (Q03111 1-138): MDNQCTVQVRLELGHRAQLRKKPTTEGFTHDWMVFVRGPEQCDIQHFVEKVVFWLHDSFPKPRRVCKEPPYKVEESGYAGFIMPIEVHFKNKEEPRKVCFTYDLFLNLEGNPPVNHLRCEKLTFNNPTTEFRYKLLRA

| SMILES | pIC50 (ENL YEATS domain) | pEC50 ([1]; Homo sapiens, 288 h) | pEC50 [1] |
| --- | --- | --- | --- |
| Cc1nn(C)c2cc(C(=O)Nc3cc4[nH]c([C@H]5CCCN5C)cc4cn3)ccc12 [Example 40] | 7.47 | 7.06 |  |
| CN1CCC[C@@H]1c1cc2cnc(NC(=O)c3ccc4c(N)nccc4c3)cc2[nH]1 [Example 41] | 7.85 | 7.14 |  |
| Cc1ncc2cc(C(=O)Nc3cc4[nH]c([C@H]5CCCN5C)cc4cn3)ccn12 [Example 42] | 7.08 | 6.93 |  |
| CN1CCC[C@@H]1c1cc2cnc(NC(=O)c3ccc4[nH]nc(Cl)c4c3)cc2[nH]1 [Example 43] | 7.43 | 6.59 |  |
| CN1CCC[C@@H]1c1cc2cnc(NC(=O)c3ccn4ccnc4c3)cc2[nH]1 [Example 45] | 6.53 | 5.16 |  |
| CN1CCC[C@@H]1c1cc2cnc(NC(=O)c3ccc4[nH]nc(F)c4c3)cc2[nH]1 [Example 46] | 7.21 | 6.59 |  |
| CNc1c(OC)cnc2cc(C(=O)Nc3cc4[nH]c([C@H]5CCCN5C)cc4cn3)ccc12 [Example 47] | 7.55 | 6.13 |  |
| CN1CCC[C@@H]1c1cc2cnc(NC(=O)c3ccc4c(cnn4C)c3)cc2[nH]1 [Example 49] | 7.59 | 5.84 |  |
| CNc1nn(C)c2cc(C(=O)Nc3cc4[nH]c([C@H]5CCCN5C)cc4cn3)ccc12 [Example 50] | 6.99 | 5.63 |  |
| COCCNc1nn(C)c2cc(C(=O)Nc3cc4[nH]c([C@H]5CCCN5C)cc4cn3)ccc12 [Example 51] | 7.00 | 5.92 |  |
| COc1c(C(=O)Nc2cc3[nH]c([C@H]4CCCN4C)cc3cn2)ccc2c(C)n[nH]c12 [Example 54] | 6.50 | 6.21 |  |
| CN1CCC[C@@H]1c1cc2cnc(NC(=O)c3ccc4c(F)nn(C)c4c3)cc2[nH]1 [Example 55] | 7.74 | 6.16 |  |
| Cc1nc2ccc(C(=O)Nc3cc4[nH]c([C@H]5CCCN5C)cc4cn3)cc2o1 [Example 56] | 6.88 | 5.32 |  |
| CN1CCC[C@@H]1c1cc2cnc(NC(=O)c3ccc4c(c3)nnn4C)cc2[nH]1 [Example 57] | 6.97 | < 4.52 |  |
| Cc1[nH]c2ccc(C(=O)Nc3cc4[nH]c([C@H]5CCCN5C)cc4cn3)cc2c1C [Example 58] | 6.68 | 5.07 |  |
| CN1CCC[C@@H]1c1cc2cnc(NC(=O)c3ccc4c(c3)ncn4C)cc2[nH]1 [Example 59] | 7.28 | 4.80 |  |
| CN1CCC[C@@H]1c1cc2cnc(NC(=O)c3ccc4c(ccn4C)c3)cc2[nH]1 [Example 60] | 6.83 | 6.53 |  |
| Cc1nc2cc(C(=O)Nc3cc4[nH]c([C@H]5CCCN5C)cc4cn3)ccc2[nH]1 [Example 61] | 7.05 | 5.54 |  |
| CN1CCC[C@@H]1c1cc2cnc(NC(=O)c3ccc4ccn(C)c4c3)cc2[nH]1 [Example 62] | 6.33 | 6.22 |  |
| CN1CCC[C@@H]1c1cc2cnc(NC(=O)c3ccc4ncn(C)c4c3)cc2[nH]1 [Example 63] | 7.02 | 5.15 |  |
| Cc1nnn2cc(C(=O)Nc3cc4[nH]c([C@H]5CCCN5C)cc4cn3)ccc12 [Example 64] | 7.04 | 6.11 |  |
| Cc1nccc2cc(C(=O)Nc3cc4[nH]c([C@H]5CCCN5C)cc4cn3)ccc12 [Example 65] | 7.74 | 7.27 |  |
| Cc1ccc2cc(C(=O)Nc3cc4[nH]c([C@H]5CCCN5C)cc4cn3)ccc2n1 [Example 66] | 7.54 | 5.79 |  |
| CC(C)c1ncc2cc(C(=O)Nc3cc4[nH]c([C@H]5CCCN5C)cc4cn3)ccn12 [Example 67] | 7.12 | 7.42 |  |

| SMILES | pIC50 (ENL YEATS domain) | pEC50 ([1]; Homo sapiens, 288 h) | pEC50 [1] |
| --- | --- | --- | --- |
| CN1CCC[C@@H]1c1cc2cnc(NC(=O)c3ccn4c(C5CC5)ncc4c3)cc2[nH]1 [Example 68] | 7.46 | 7.32 |  |
| Cc1ncn2ccc(C(=O)Nc3cc4[nH]c([C@H]5CCCN5C)cc4cn3)cc12 [Example 70] | 6.96 | 6.72 |  |
| CN1CCC[C@@H]1c1cc2cnc(NC(=O)c3ccc4nnn(C)c4c3)cc2[nH]1 [Example 72] | 6.92 | 5.59 |  |
| CN1CCC[C@@H]1c1cc2ncc(NC(=O)c3ccc4c(F)n[nH]c4c3F)cc2[nH]1 [Example 74] | 7.10 | 5.85 |  |
| Cc1ncc2c(F)c(C(=O)Nc3cnc4cc([C@H]5CCCN5C)[nH]c4c3)ccn12 [Example 75] | 6.90 | 5.62 |  |
| Cc1ccc2cc(C(=O)Nc3ccc4cc([C@H]5CCCN5C)[nH]c4c3)c(F)cc2n1 [Example 76] | 6.87 |  | 6.14 |
| CN1CCC[C@@H]1c1cc2cnc(NC(=O)c3ccc4c(C(F)F)nn(C)c4c3)cc2[nH]1 [Example 78, (R)-3-(difluoromethyl)-1-methyl-N-(2-(1-methylpyrrolidin-2-yl)-1H-pyrrolo[3,2-c]pyridin-6-yl)-1H-indazole-6-carboxamide] | 7.85 | 6.78 |  |
| CN1CCCC[C@@H]1c1cc2cnc(NC(=O)c3ccc4c(F)nn(C)c4c3)cc2[nH]1 [Example 81, (R)-3-fluoro-1-methyl-N-(2-(1-methylpiperidin-2-yl)-1H-pyrrolo[3,2-c]pyridin-6-yl)-1H-indazole-6-carboxamide] | 7.29 | 6.53 |  |
| CN1CCC[C@@H]1c1cc2ncc(NC(=O)c3ccc4cnn(C5CC5)c4c3)cc2[nH]1 [Example 82] | 6.99 | 6.39 |  |
| Cc1nccc2ccc(C(=O)Nc3cc4[nH]c([C@H]5CCCN5C)cc4cn3)cc12 [Example 83] | 7.19 | 6.64 |  |
| CN1CCC[C@@H]1c1cc2cnc(NC(=O)c3ccc4c(cnn4-c4ccncc4)c3)cc2[nH]1 [Example 84] | 7.51 | 6.87 |  |
| Cc1nn(C)c2ccc(C(=O)Nc3cc4[nH]c([C@H]5CCCCN5C)cc4cn3)cc12 [Example 87] | 7.33 | 6.76 |  |
| Cc1nccc2ccc(C(=O)Nc3cc4[nH]c([C@H]5CCCCN5C)cc4cn3)cc12 [Example 88] | 7.33 | 7.16 |  |
| Cc1ncc2ccc(C(=O)Nc3cc4[nH]c([C@H]5CCCCN5C)cc4cn3)cn12 [Example 89] | 6.76 | 6.60 |  |
| Cc1nc(C)n2cc(C(=O)Nc3cc4[nH]c([C@H]5CCCCN5C)cc4cn3)ccc12 [Example 90] | 7.29 | 6.84 |  |
| Cc1ncn2ccc(C(=O)Nc3cc4[nH]c([C@H]5CCCCN5C)cc4cn3)cc12 [Example 92] | 7.03 | 7.00 |  |
| Cc1nnc(C)c2cc(C(=O)Nc3cc4[nH]c([C@H]5CCCCN5C)cc4cn3)ccc12 [Example 93] | 7.12 | 6.84 |  |
| CN1C(=O)Cc2ccc(C(=O)Nc3cc4[nH]c([C@H]5CCCCN5C)cc4cn3)cc21 [Example 94] | 6.66 | 6.43 |  |
| CN1CCCC[C@@H]1c1cc2cnc(NC(=O)c3ccc4c(c3)N(C)S(=O)(=O)C4)cc2[nH]1 [Example 96] | 6.60 | 6.50 |  |
| CN1CCCC[C@@H]1c1cc2cnc(NC(=O)c3ccc4c(ccc(=O)n4C)c3)cc2[nH]1 [Example 99, (R)-1-methyl-N-(2-(1-methylpiperidin-2-yl)-1H-pyrrolo[3,2-c]pyridin-6-yl)-2-oxo-1,2-dihydroquinoline-6-carboxamide] | 7.25 | 6.53 |  |
| CN1CCCC[C@@H]1c1cc2cnc(NC(=O)c3ccc4c(=O)n(C)cnc4c3)cc2[nH]1 [Example 101, (R)-3-methyl-N-(2-(1-methylpiperidin-2-yl)-1H-pyrrolo[3,2-c]pyridin-6-yl)-4-oxo-3,4-dihydroquinazoline-7-carboxamide] | 6.75 | 6.37 |  |
| CN1CCCC[C@@H]1c1cc2cnc(NC(=O)c3ccc4ncn(C)c(=O)c4c3)cc2[nH]1 [Example 102, (R)-3-methyl-N-(2-(1-methylpiperidin-2-yl)-1H-pyrrolo[3,2-c]pyridin-6-yl)-4-oxo-3,4-dihydroquinazoline-6-carboxamide] | 6.70 | 6.54 |  |
| Cc1nn(C)c(=O)c2cc(C(=O)Nc3cc4[nH]c([C@H]5CCCCN5C)cc4cn3)ccc12 [Example 103, (R)-1,3-dimethyl-N-(2-(1-methylpiperidin-2-yl)-1H-pyrrolo[3,2-c]pyridin-6-yl)-4-oxo-3,4-dihydrophthalazine-6-carboxamide] | 6.83 | 6.53 |  |
| Cc1nn(C)c(=O)c2ccc(C(=O)Nc3cc4[nH]c([C@H]5CCCCN5C)cc4cn3)cc12 [Example 104, (R)-2,4-dimethyl-N-(2-(1-methylpiperidin-2-yl)-1H-pyrrolo[3,2-c]pyridin-6-yl)-1-oxo-1,2-dihydrophthalazine-6-carboxamide] | 6.80 | 6.31 |  |
